# Source: US11731946B2, “Broad spectrum antivirulence, anti-persistence compounds” (priority 2017, dated 2023)
# How the values were obtained:
# Type in all cases: cell-based, P. aeruginosa
# [1] = test system: MvfR regulon; test: pqsA gene expression (pqsA-GFP reporter); details: for activity at 10 µM / activity at 50 µM / IC50: Pseudomonas aeruginosa; for activity at 10 µM: read-out: pqsA @10 uM (%), compound at 10 uM; for activity at 50 µM: read-out: pqsA @50 uM (%), compound at 50 uM; for IC50: read-out: IC50 pqsA (μM)
# [2] = test system: MvfR regulon; test: Quantification of pyocyanin (OD520nm of chloroform-extracted cultures); details: for activity at 50 µM: read-out: pyocyanin @50 uM (%), compound at 50 uM; for activity at 1 µM: read-out: pyocyanin @1 uM (%), compound at 1 uM; for activity at 10 µM: read-out: pyocyanin @10 uM (%), compound at 10 uM; for pyocyanin @50 uM (%): compound at 50 uM
# [3] = test system: MvfR regulon; test: LC/MS quantification of HAQs and related molecules in bacterial culture supernatants; details: Pseudomonas aeruginosa
# [4] = Pseudomonas aeruginosa, read-out: IC50 pyocyanin (μM)
Structure (SMILES),activity at 10 µM [1] [%],activity at 50 µM [1] [%],activity at 50 µM ([2]; Pseudomonas aeruginosa) [%],activity at 50 µM ([3]; read-out: 2-AA @50 uM) [%],activity at 50 µM ([3]; read-out: DHQ @50 uM) [%],activity at 50 µM ([3]; read-out: HHQ @50 uM (%)) [%],activity at 50 µM ([3]; read-out: HQNO @50 uM (%)) [%],activity at 50 µM ([3]; read-out: PQS @50 uM (%)) [%],further results
Cc1cc(F)ccc1NC(=O)CC(=O)Nc1ccc(C#N)cc1 [Compound 62],110,43.6,59.5,72.7,84.7,79.6,86.5,83.5,activity at 50 µM ([3]; read-out: AA @50 uM): 58.7%
Cc1ccccc1NCC(=O)Nc1ccc(C#N)cc1 [Compound 10],–,92.9,94.3,63.9,59.5,76.4,92.5,124,–
CC(=O)Nc1ccc(NC(=O)CC(=O)Nc2ccc(C#N)cc2)cc1 [Compound 68],94.2,84.8,103,92.8,98.2,74.7,84.6,87.6,activity at 50 µM ([3]; read-out: AA @50 uM): 56%
CN(C(=O)CC(=O)Nc1ccc(C#N)cc1)c1ccc(F)cc1 [Compound 59],110,105,110,97.3,91,75.9,85.3,86.6,activity at 50 µM ([3]; read-out: AA @50 uM): 35.5%
N#Cc1ccc(NC(=S)CC(=S)Nc2ccc(F)cc2)cc1 [Compound 60],117,80.7,106,104,82.9,66.6,77,83.6,activity at 50 µM ([3]; read-out: AA @50 uM): 28.2%
Cc1cc(F)ccc1NCC(=O)Nc1ccc(C(F)(F)F)cc1 [Compound 3],–,46,60.9,68.3,81.5,110,86.5,93.4,–
Cc1cc(F)ccc1NCC(=O)Nc1ccc(F)cc1 [Compound 5],–,92,83.6,80.4,84.7,94.6,92.3,88.5,–
N#Cc1ccc(NC(=O)CC(=O)Nc2ccc(N)cc2)cc1 [Compound 67],97.9,89.7,87.2,101,103,92.3,91.7,86.4,activity at 50 µM ([3]; read-out: AA @50 uM): 115%
N#Cc1ccc(NC(=O)CC(=O)Nc2ccc(F)cc2)cc1 [Compound 48],–,9.7,15.7,37.3,68.3,56.8,58.5,46.7,"IC50 [1]: 5.5 µM; IC50 [2, 4]: 7.1 µM; IC50 ([3]; PA14, read-out: IC50 2-AA (μM)): 20.9 µM; IC50 ([3]; PA14, read-out: IC50 DHQ (μM)): 33 µM; IC50 ([3]; PA14, read-out: IC50 HHQ (μM)): 47.5 µM; IC50 ([3]; PA14, read-out: IC50 PQS (μM)): 36.5 µM; activity at 50 µM ([3]; read-out: AA @50 uM): 187%; IC50 ([3]; read-out: IC50 AA (increase; μM)): 42.5 µM; IC50 ([3]; read-out: IC50 HQNO (μM)): 33.7 µM"
N#Cc1ccc(NC(=O)CNc2ccc(F)cc2)cc1 [Compound 9],–,63.2,85.6,112,–,87.1,108,124,–
CC(=O)c1ccc(NC(=O)CC(=O)Nc2ccc(C#N)cc2)cc1 [Compound 63],86.5,28,65.6,89.9,106,120,101,119,IC50 [1]: 57.1 µM; activity at 50 µM ([3]; read-out: AA @50 uM): 131%
Cc1cc(F)ccc1OCC(=O)Nc1ccc(C#N)cc1 [Compound 6],–,98,98.4,63.4,82.7,114,111,114,–
Cc1cc(F)ccc1NC(C)C(=O)Nc1ccc(C#N)cc1 (stereo not drawn) [Compound 7],–,86.8,110,152,–,106,131,115,–
N#Cc1ccc(NC(=O)CC(=O)Nc2cccc(Br)c2)cc1 [Compound 56],64.2,–,17.2,–,–,–,–,–,activity at 1 µM ([2]; Pseudomonas aeruginosa): 79.9%; activity at 10 µM ([2]; Pseudomonas aeruginosa): 41.4%
N#Cc1ccc(NC(=O)CC(=O)Nc2ccc(C#N)nc2)cc1 [Compound 92],25.4,–,6.8,–,–,–,–,–,"IC50 [2, 4]: 1.61 µM; activity at 1 µM ([2]; Pseudomonas aeruginosa): 64.5%; activity at 10 µM ([2]; Pseudomonas aeruginosa): 13.9%"
N#Cc1ccc(NC(=O)CC(=O)Nc2ccccc2Br)cc1 [Compound 55],94,–,86.3,–,–,–,–,–,activity at 1 µM ([2]; Pseudomonas aeruginosa): 99%; activity at 10 µM ([2]; Pseudomonas aeruginosa): 70.7%
N#Cc1ccc(NC(=O)CNc2ccccc2F)cc1 [Compound 37],–,84,97.3,–,–,–,–,–,–
Cc1cc(F)ccc1NCC(=O)Nc1ccc(N2CCOCC2)cc1 [Compound 17],–,99.8,102,–,–,–,–,–,–
Cc1cccc(NC(=O)CC(=O)Nc2ccc(C#N)cc2)c1 [Compound 85],84.8,–,49.7,–,–,–,–,–,activity at 1 µM ([2]; Pseudomonas aeruginosa): 94%; activity at 10 µM ([2]; Pseudomonas aeruginosa): 75.3%
N#Cc1ccc(NC(=O)CNc2ccc(F)cc2F)cc1 [Compound 16],–,56.3,89.1,–,–,–,–,–,–
N#Cc1ccc(NC(=O)CC(=O)Nc2ccc([N+](=O)[O-])cc2)cc1 [Compound 66],1.51,–,–,–,–,–,–,–,"pyocyanin @1 uM (%) ([2]; compound at 1 uM, listed as D51P): 61.28%; pyocyanin @10 uM (%) ([2]; compound at 10 uM, listed as D51P): 24.86%; pyocyanin @50 uM (%) ([2]; listed as D51P): 4.00%; IC50 ([2]; read-out: IC50 pyocyanin): 0.84 µM"
N#Cc1ccc(NC(=O)CC(=O)Nc2ccc(Oc3ccccc3)cc2)c(N)c1 [Compound 107],2.1,–,–,–,–,–,–,–,"pqsA @50 uM (%) ([1]; compound at 50 uM, listed as D92): 1.40%; activity at 1 µM ([2]; Pseudomonas aeruginosa): 75%; activity at 10 µM ([2]; Pseudomonas aeruginosa): 12.1%; pyocyanin @50 uM (%) ([2]; listed as D92): 3.51%"
N#Cc1ccc(NC(=O)C2(C(=O)Nc3ccc(C#N)cc3)CC2)cc1 [Compound 102],93.4,–,96.8,–,–,–,–,–,–
Cc1cc(F)ccc1NCC(=O)NCC(F)(F)F [Compound 29],–,70,110,–,–,–,–,–,–
N#Cc1ccc(NC(=O)CC(=O)Nc2ccncc2)cc1 [Compound 100],88.9,–,81.9,–,–,–,–,–,activity at 1 µM ([2]; Pseudomonas aeruginosa): 66.3%; activity at 10 µM ([2]; Pseudomonas aeruginosa): 101%
N#Cc1ccc(NC(=O)CC(=O)Nc2ccc(C#N)nc2)cn1 [Compound 106],80,38.9,43.1,–,–,–,–,–,activity at 1 µM ([2]; Pseudomonas aeruginosa): 90%; activity at 10 µM ([2]; Pseudomonas aeruginosa): 75.6%
N#Cc1ccc(NC(=O)CC(=O)Nc2cccc(Cl)c2)cc1 [Compound 86],59.8,–,12.5,–,–,–,–,–,"IC50 [2, 4]: 1.54 µM; activity at 1 µM ([2]; Pseudomonas aeruginosa): 83.2%; activity at 10 µM ([2]; Pseudomonas aeruginosa): 45.4%"
